The test system of data set [1] is HepG2. Nature of the data set: Antitumour activity against CM-Dil labeled human HepG2 cells xenografted in AB zebrafish embryo assessed as retarded tumor growth measured after 48 hrs by confocal microscopy analysis. The settings on record: dose 12-48 µM. In kind it is functional, cell-based.
For data set [2], the system named is HeLa. The data set can be described thus: Cytotoxicity against human HeLa cells assessed as inhibition of cell proliferation incubated for 48 hrs by MTT assay. In kind it is functional, cell-based. For orientation: Tetrazolium dyes change colour on reduction, which living cells bring about.
The subject of the next data set is K562. Nature of the data set: Cytotoxicity against human K562 cells assessed as inhibition of cell proliferation incubated for 48 hrs by MTT assay. The format is functional, cell-based. To be noted: K562, 48 h.
Data set [3] deals with HepG2. The data set can be described thus: Cytotoxicity against human HepG2 cells assessed as inhibition of cell proliferation incubated for 48 hrs by MTT assay. In kind it is functional, cell-based. To be noted: HepG2, 48 h.
Data set [4] has as its system HeLa. The data set can be described thus: Induction of apoptosis in human HeLa cells assessed as necrotic cells at 6 uM measured after 48 hrs by Annexin V-FITC/propidium iodide staining based flow cytometric analysis (reference value: 1.32 %). In kind it is functional. (A flow cytometer gives signals particle by particle.)
For data set [5], the system named is HeLa. Nature of the data set: Induction of apoptosis in human HeLa cells assessed as viable cells at 6 uM measured after 48 hrs by Annexin V-FITC/propidium iodide staining based flow cytometric analysis (reference value: 83.1 %). The format is functional. To be noted: read-out: Activity.
The test system of data set [6] is HeLa. Nature of the data set: Induction of apoptosis in human HeLa cells assessed as late apoptotic cells at 6 uM measured after 48 hrs by Annexin V-FITC/propidium iodide staining based flow cytometric analysis (reference value: 12.2 %). The format is functional.
In data set [7] the test system is HeLa. The data set can be described thus: Induction of apoptosis in human HeLa cells assessed as early apoptotic cells at 6 uM measured after 48 hrs by Annexin V-FITC/propidium iodide staining based flow cytometric analysis (reference value: 3.34 %). In kind it is functional.
Data set [8] relates to HeLa. Nature of the data set: Induction of apoptosis in human HeLa cells assessed as necrotic cells at 12 uM measured after 48 hrs by Annexin V-FITC/propidium iodide staining based flow cytometric analysis (reference value: 1.32 %). The format is functional.
The test system of data set [9] is HeLa. Nature of the data set: Induction of apoptosis in human HeLa cells assessed as viable cells at 12 uM measured after 48 hrs by Annexin V-FITC/propidium iodide staining based flow cytometric analysis (reference value: 83.1 %). In kind it is functional. The settings on record: read-out: Activity.
Data set [10] deals with HeLa. Nature of the data set: Induction of apoptosis in human HeLa cells assessed as late apoptotic cells at 12 uM measured after 48 hrs by Annexin V-FITC/propidium iodide staining based flow cytometric analysis (reference value: 12.2 %). In kind it is functional.
Data set [11] has as its system HeLa. The data set can be described thus: Induction of apoptosis in human HeLa cells assessed as early apoptotic cells at 12 uM measured after 48 hrs by Annexin V-FITC/propidium iodide staining based flow cytometric analysis (reference value: 3.34 %). In kind it is functional.
Data set [12] concerns HeLa. The data set can be described thus: Induction of apoptosis in human HeLa cells assessed as necrotic cells at 24 uM measured after 48 hrs by Annexin V-FITC/propidium iodide staining based flow cytometric analysis (reference value: 1.32 %). In kind it is functional.
The subject of data set [13] is HeLa. Nature of the data set: Induction of apoptosis in human HeLa cells assessed as viable cells at 24 uM measured after 48 hrs by Annexin V-FITC/propidium iodide staining based flow cytometric analysis (reference value: 83.1 %). The format is functional. The settings on record: read-out: Activity.
Data set [14] has as its system HeLa. Nature of the data set: Induction of apoptosis in human HeLa cells assessed as late apoptotic cells at 24 uM measured after 48 hrs by Annexin V-FITC/propidium iodide staining based flow cytometric analysis (reference value: 12.2 %). In kind it is functional.
Data set [15] relates to HeLa. The data set can be described thus: Induction of apoptosis in human HeLa cells assessed as early apoptotic cells at 24 uM measured after 48 hrs by Annexin V-FITC/propidium iodide staining based flow cytometric analysis (reference value: 3.34 %). In kind it is functional.
The subject of data set [16] is HeLa. Nature of the data set: Cell cycle arrest in human HeLa cells assessed as accumulation at G0/G1 phase at 6 uM measured after 48 hrs by PI-staining based flow cytometric analysis (reference value: 40.03%). The format is functional.
For data set [17], the system named is HeLa. The data set can be described thus: Cell cycle arrest in human HeLa cells assessed as accumulation at G2 phase at 6 uM measured after 48 hrs by PI-staining based flow cytometric analysis (reference value: 8.58%). In kind it is functional.
In data set [18] the test system is HeLa. Nature of the data set: Cell cycle arrest in human HeLa cells assessed as accumulation at S phase at 6 uM measured after 48 hrs by PI-staining based flow cytometric analysis (reference value: 51.39%). In kind it is functional.
The subject of data set [19] is HeLa. The data set can be described thus: Cell cycle arrest in human HeLa cells assessed as accumulation at G0/G1 phase at 12 uM measured after 48 hrs by PI-staining based flow cytometric analysis (reference value: 40.03%). In kind it is functional.
Data set [20] deals with HeLa. Nature of the data set: Cell cycle arrest in human HeLa cells assessed as accumulation at G2 phase at 12 uM measured after 48 hrs by PI-staining based flow cytometric analysis (reference value: 8.58%). In kind it is functional.
Data set [21] deals with HeLa. The data set can be described thus: Cell cycle arrest in human HeLa cells assessed as accumulation at S phase at 12 uM measured after 48 hrs by PI-staining based flow cytometric analysis (reference value: 51.39%). In kind it is functional.
In data set [22] the test system is HeLa. Nature of the data set: Cell cycle arrest in human HeLa cells assessed as accumulation at G0/G1 phase at 24 uM measured after 48 hrs by PI-staining based flow cytometric analysis (reference value: 40.03%). In kind it is functional.
Data set [23] relates to HeLa. The data set can be described thus: Cell cycle arrest in human HeLa cells assessed as accumulation at G2 phase at 24 uM measured after 48 hrs by PI-staining based flow cytometric analysis (reference value: 8.58%). The format is functional.
In data set [24] the test system is HeLa. Nature of the data set: Cell cycle arrest in human HeLa cells assessed as accumulation at S phase at 24 uM measured after 48 hrs by PI-staining based flow cytometric analysis (reference value: 51.39%). The format is functional.
The test system of data set [25] is HeLa. The data set can be described thus: Induction of reactive oxygen species generation in human HeLa cells assessed as increase in ROS level at 2.5 to 30 uM measured after 48 hrs by DCFH-DA staining based flow cytometric analysis. The format is functional, cell-based. The settings on record: dose 2.5-30 µM.
The target of data set [26] is Signal transducer and activator of transcription 3 (Homo sapiens) (UniProt P40763). The data set can be described thus: Inhibition of STAT3 phosphorylation in human HeLa cells measured after 12 hrs by western blot analysis. The format is cell-based. On the technique in general: Immunoblotting shows a protein as a band on a membrane.
Data set [27] shares this target. The data set can be described thus: Inhibition of STAT3 activation in human HeLa cells measured after 12 hrs by western blot analysis. In kind it is cell-based.
The species named for data set [28] is Danio rerio. The data set can be described thus: Antiangiogenesis activity in Tg(fli1:EGFP) transgenic zebrafish embryo assessed as change in intersegmental vessels length at 12 uM measured after 48 hrs by confocal microscopy analysis (reference value: 3233.3 micrometer). The format is functional.
The species entered for data set [29] is Danio rerio. Nature of the data set: Antiangiogenesis activity in Tg(fli1:EGFP) transgenic zebrafish embryo assessed as change in intersegmental vessels length at 24 uM measured after 48 hrs by confocal microscopy analysis (reference value: 3233.3 micrometer). In kind it is functional.
The species named for data set [30] is Danio rerio. The data set can be described thus: Antiangiogenesis activity in Tg(fli1:EGFP) transgenic zebrafish embryo assessed as change in intersegmental vessels length at 48 uM measured after 48 hrs by confocal microscopy analysis (reference value: 3233.3 micrometer). The format is functional.
The nature of data set [31]: Effect on STAT3 protein level in human HeLa cells at 6 to 24 uM by Western blotting. In kind it is ADME, cell-based. To be noted: dose 6-24 µM.

The text below walks through data of ChEMBL document CHEMBL4837196, “Cytotoxic and Antiangiogenetic Xanthones Inhibiting Tumor Proliferation and Metastasis from Garcinia xipshuanbannaensis” (J Nat Prod, 2021).

What is called IC50 is the concentration that gives 50% inhibition.

Active and inactive are the calls of the source. No cut-off for these calls is given here.

Signal transducer and activator of transcription 3 (Homo sapiens), sequence (P40763 whole entry): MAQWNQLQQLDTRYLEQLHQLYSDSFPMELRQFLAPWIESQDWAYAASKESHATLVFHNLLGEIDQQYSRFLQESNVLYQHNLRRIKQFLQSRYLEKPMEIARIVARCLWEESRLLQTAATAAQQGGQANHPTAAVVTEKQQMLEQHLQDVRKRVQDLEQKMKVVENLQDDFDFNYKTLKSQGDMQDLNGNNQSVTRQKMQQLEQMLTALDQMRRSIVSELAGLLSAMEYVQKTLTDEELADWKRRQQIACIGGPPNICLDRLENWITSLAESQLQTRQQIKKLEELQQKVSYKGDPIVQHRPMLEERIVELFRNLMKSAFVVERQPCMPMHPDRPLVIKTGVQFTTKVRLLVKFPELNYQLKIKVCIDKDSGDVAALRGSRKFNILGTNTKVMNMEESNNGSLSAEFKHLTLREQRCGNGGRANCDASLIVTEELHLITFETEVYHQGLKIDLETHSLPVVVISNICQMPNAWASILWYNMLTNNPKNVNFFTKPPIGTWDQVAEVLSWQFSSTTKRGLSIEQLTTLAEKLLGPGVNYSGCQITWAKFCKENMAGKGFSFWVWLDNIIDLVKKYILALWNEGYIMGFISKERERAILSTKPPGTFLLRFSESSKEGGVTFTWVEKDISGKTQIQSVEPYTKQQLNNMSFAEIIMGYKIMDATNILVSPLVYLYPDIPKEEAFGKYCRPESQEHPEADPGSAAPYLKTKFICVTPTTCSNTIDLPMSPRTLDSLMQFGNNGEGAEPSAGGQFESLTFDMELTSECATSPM

Consider `COc1cc([C@@H]2c3cc4c(cc3[C@@H](O[C@@H]3O[C@@H]5CO[C@@H](C)O[C@H]5[C@H](O)[C@H]3O)[C@H]3COC(=O)[C@H]23)OCO4)cc(OC)c1O`, for which, in the data set with HepG2 [1], the Activity result was “Dose-Dependent Effect”.

`COC(=O)C[C@](O)(CCCC(C)(C)O)C(=O)O[C@@H]1C(OC)=C[C@]23CCCN2CCc2cc4c(cc2[C@H]13)OCO4` [OMACETAXINE MEPESUCCINATE]: the IC50 in the data set on HeLa [2] is 0.4 µM.

`COC(C)(C)CCc1c(O)c(O)cc2oc3c4c(c(CC=C(C)C)c(O)c3c(=O)c12)OC(C)(C)C=C4`: the IC50 in the data set with HeLa [2] was 9.6 µM; in the data set with K562, over 10 µM; in the data set on HepG2 [3], over 10 µM. Moreover, the Activity in the data set on HeLa [4] is 1.72%; in the data set on HeLa [6], 16.1%; in the data set with HeLa [7], 6.92%; in the data set on HeLa [8], 2.63%; with HeLa [10], 18%; in the data set with HeLa [11], 8.23%. Also, the Activity with HeLa [12] amounted to 3.76%; in the data set with HeLa [14], 24%; in the data set with HeLa [15], 13.6%; with HeLa [16] it was 55.33%; in the data set on HeLa [17], 6.58%; with HeLa [18], 38.09%. The Activity in the data set with HeLa [19] was found to be 65.78%; with HeLa [20], 4.63%; in the data set on HeLa [21] it was 29.59%; in the data set with HeLa [22], 67.2%; in the data set with HeLa [23] it was 1.71%; in the data set on HeLa [24] it was 31.09%. Moreover, the Activity result in the data set with HepG2 [1] is “Dose-Dependent Effect”; in the data set listed under Danio rerio [28], 2476.5 um; in the data set filed under Danio rerio [29] it was 2263.2 um; in the data set filed under Danio rerio [30] it was 1881.6 um; in data set [31], “Non-Toxic”. In addition, the viability at 6 µM with HeLa [5] is 75.2%. In addition, the viability at 12 µM with HeLa [9] was determined as 71.2%. Further, the viability at 24 µM in the data set on HeLa [13] was determined as 58.1%. The outcome in the data set on HeLa [25] was Active. Also, the inhibition entry in data set [26] was “Active”. Further, in data set [27], the inhibition result is “Dose-Dependent Effect”.
